According to US20200016097A1, “Methods for Preventing and Treating Radiation-Induced Epithelial Disorders” (priority 2009, published 2020):

Tested on: IEC-18 cells
Test: Repair of mechanically wounded IEC-18 monolayers
Type: cell-based, rat
Settings: 5% PEG 15-20, 50 ng/ml EGF; after 24 hours
Procedure: In order to assess the ability of HMW PEG to induce the repair of epithelial monolayers following injury, IEC-18 cells were grown to confluency in 60 mm dishes, rinsed then the monolayer was mechanically wounded using a razor blade. Detached cells were removed and fresh medium containing 5% PEG 15-20, 50 ng/ml Epidermal Growth Factor (EGF) or a combination of both was added. The cells were maintained in the presence of treatment for 24 hours or were treated for 2 minutes, washed then incubated without treatment for 24 hours. Wound healing was assessed by the decrease in the length of the wound after 24 hours.

EGF: Epidermal Growth Factor, 50 ng/ml (NSDSECPLSHDGYCLHDGVCMYIEALDKYACNCVVGYIGERCQYRDLKWWELR; UniProt P01133 971-1023, looked up)
wound healing (decrease in the length of the wound): induced wound healing
